Calls of active or inactive are those of the source. No rule for the calls is given here.
Tested on: cell-based VP16 transactivation luciferase luminescence
Assay: compounds lowering VP16-driven reporter luminescence – cell-based, counter-screen for NR2E3 agonist project, dose response (AID 624395)

In the case of `CCOP(=O)(CCP(=O)(OCC)OCC)OCC.C[CH2][Sn]([Cl])([Cl])[CH2]C`, the IC50 is reported as 10.9 µM (inactive).
`Cc1cnc(NC(=O)Cc2ccc(Br)cc2)s1` was tested, and the IC50 was > 39.9 µM (inactive).
In the case of `COc1ccc2c(c1)/C(=C/c1cnc[nH]1)C(=O)N2`, the IC50 is reported as 12.7 µM (inactive).
`O=C(CSc1nnnn1-c1ccc2c(c1)OCCO2)Nc1nc2c(s1)CCCC2` was tested, and the IC50 was > 39.8 µM (inactive).
`Cc1nc(NC(=O)c2c(-c3ccccc3Cl)noc2C)sc1C` was tested, and the IC50 was > 39.8 µM (inactive).
In the case of `Cc1ccnc(NC(=O)C2CCN(S(=O)(=O)c3c(C)c(C)cc(C)c3C)CC2)c1`, the IC50 is reported as 13.2 µM (inactive).
With `O=NN(CC(=O)NNc1ccccc1)CC(=O)NNc1ccccc1` the IC50 was 23.2 µM (inactive).
For `C=C1C(=O)OC2CC(C)C3C=CC(=O)C3(C)C(O)C12` (stereo unspecified), the IC50 was 10.5 µM (inactive).
For `O=C(Nc1ccc(Cn2cccn2)cc1)c1ccc(COc2ccccc2Br)cc1`, the IC50 was > 39.8 µM (inactive).
For `O=C1N/C(=C\c2ccc(O)cc2)C(O)=C1C=NCc1ccccc1`, the IC50 was > 39.8 µM (inactive).
`COc1ccc2c(CC(=O)Nc3ncc(C)s3)coc2c1` was tested, and the IC50 was > 39.8 µM (inactive).
For `CN1CCN(C(=O)c2cccc(-c3cnc4cnc(-c5ccccc5Oc5ccccc5)cn34)c2)CC1`, the IC50 was 12.7 µM (inactive).
In the case of `Cc1ccnc(NC(=O)CSc2cc(=O)n(C)c3ccccc23)c1`, the IC50 is reported as 11 µM (inactive).
For `COc1ccc(C)cc1NC(=O)NC1CC(=O)N(c2ccc3c(c2)OCCO3)C1` (stereo unspecified), the IC50 was 20.3 µM (inactive).
For `N=C1SCC(=O)N1c1ncc(Cc2ccccc2Cl)s1`, the IC50 was 10.5 µM (inactive).
`COCCCNC(=S)N1CCN(c2nc(-c3ccc(Cl)cc3)cs2)CC1` was tested, and the IC50 was 10.6 µM (inactive).
For `Cc1ccnc(NC(=O)Cc2ccc(-c3ccccc3)cc2)c1`, the IC50 was > 39.8 µM (inactive).
`O=c1cc(C(F)(F)F)nc(SC/C=C/c2ccccc2)[nH]1` was tested, and the IC50 was 13 µM (inactive).
With `O=S(=O)(/C=C/C=C/S(=O)(=O)c1ccccc1)c1ccccc1` the IC50 was 11.7 µM (inactive).
With `CCN(c1ccccc1)S(=O)(=O)c1ccc(C(=O)Nc2nnc(CSC)o2)cc1` the IC50 was 12.7 µM (inactive).
For `O=[N+]([O-])c1cc(CN2CCN(c3ccccc3)CC2)c(O)c2ncccc12`, the IC50 was > 39.8 µM (inactive).

`CCCCCCCCCCCCN1[C@@H](CC(=O)O)c2cc(F)ccc2S1(=O)=O` and `CCCCC[C@@H]1C=C(C(=O)O)[C@H](c2ccc(Cl)c(Cl)c2)N1S(=O)(=O)c1ccc(C)cc1` are within 1.5-fold of each other in IC50: 8.51 µM for the first, 8.77 µM for the second.

`O=C(C(=Cc1ccccc1)CN1CCCCC1)c1ccccc1` and `C=C(C(=O)c1ccccc1)C(NC(C)(C)C)c1ccccc1` (stereo unspecified) are within 1.5-fold of each other in IC50: 4.54 µM for the first, 5.27 µM for the second.

`COc1ccc(C[C@@H]2OC3(C=CC(=O)C=C3)O[C@H]2Cc2ccc(OC)cc2)cc1` and `COc1ccc(CNC(=O)c2c(C)oc3c2C(=O)c2ccccc2C3=O)cc1` are within 1.5-fold of each other in IC50: 0.845 µM for the first, 1.18 µM for the second.

First: COCCn1c(C)cc(C(=O)COc2ccc(C)nc2[N+](=O)[O-])c1C
Second: C=CCn1c(C)cc(C(=O)CN2C(=O)c3ccccc3S2(=O)=O)c1C
The IC50 of the first is 1.6-fold lower: 1.46 µM for the first, 2.31 µM for the second.

Going from `CC(C)(C)c1ccc(CSc2nc(N)cc(=O)[nH]2)cc1` to `c1ccc(-c2cc(CSc3nc4ccccc4[nH]3)on2)cc1`, the IC50 falls from 4.53 µM to 2.69 µM (1.7-fold).

`NS(=O)(=O)c1ccc(CCNc2nn3c(-c4cccc(OC(F)(F)F)c4)cnc3s2)cc1` and `Cc1cccc(NS(=O)(=O)c2ccc(-c3cnc(C4CC4)o3)cc2)c1C` are within 1.5-fold of each other in IC50: 4.66 µM for the first, 5.28 µM for the second.

First: Cc1cnc(NC(=O)CCCc2nc3ccccc3s2)s1
Second: Cc1ccnc(NC(=O)CCCOc2cc(=O)n(C)c3ccccc23)c1
The IC50 of the first is 1.6-fold lower: 5.07 µM for the first, 8.23 µM for the second.

`CSC(=Nc1ccccc1)N=C(SCc1ccccc1)N(C)C` and `CC(C)(C)Nc1nc(-c2ccccn2)nc2ccccc12` are within 1.5-fold of each other in IC50: 4.06 µM for the first, 4.08 µM for the second.

Compared with `Nc1nc(-c2ccccn2)nc(N)c1Cc1c(F)cccc1Cl`, `Nc1nc(-c2ccccn2)nc(N)c1Cc1ccc(Cl)cc1Cl` is 1.7-fold higher in IC50: 2.69 µM for the first, 4.59 µM for the second.

Going from `COc1ccc(OC)c(NC(=O)CSc2nnnn2-c2ccc3c(c2)OCO3)c1` to `CCCCCc1c(-c2ccc(OC)c(OC)c2)ncn1CCc1ccccc1OC`, the IC50 rises from 3.36 µM to 7.74 µM (2.3-fold). The first is the more potent here.

`c1ccc(CNc2ncnc3sccc23)cc1` and `COc1ccc(NC(=O)/C(Cl)=C(/Cl)S(=O)(=O)Cc2ccccc2)cn1` are within 1.5-fold of each other in IC50: 4.71 µM for the first, 5.13 µM for the second.

`O=C(OCCOc1ccc(Cl)cc1)c1cc(S(=O)(=O)N2CCCCC2)ccc1N1CCOCC1` and `CC(=O)N1c2ccc(S(=O)(=O)N3CCC(C(=O)Nc4cccc(Cl)c4)CC3)cc2CC1C` (stereo unspecified) are within 1.5-fold of each other in IC50: 8.66 µM for the first, 6.45 µM for the second.

`O=S(=O)(NC1CCCC1)c1ccc(S(=O)(=O)N2CCc3ccccc32)cc1` and `O=C(C1CCC(CNS(=O)(=O)c2cccc3nsnc23)CC1)N1CC=C(c2ccccc2)CC1` (stereo unspecified) are within 1.5-fold of each other in IC50: 4.59 µM for the first, 6.86 µM for the second.

Compared with `Cc1ccc(C#N)c(SCc2nnc(-c3ccc(Cl)cc3)o2)n1`, `CCOc1ccc(-c2nc(CSCC(=O)N3CCN(c4cccc(OC)c4)CC3)c(C)o2)cc1` is 230-fold higher in IC50: 0.0132 µM for the first, 3.02 µM for the second.

`Cc1cc(C(=O)Nc2ccc(Cl)cc2)c(C)n1-c1ccccc1` and `CC(C)(C)C(=O)Nc1cc2nn(-c3ccccc3)nc2cc1Cl` are within 1.5-fold of each other in IC50: 0.00684 µM for the first, 0.00479 µM for the second.

First: CNC(=S)/N=C/NOCc1ccc(Cl)cc1Cl
Second: Nc1nc(N)nc(-c2cc(O)ccc2O)n1
The IC50 of the first is 4.6-fold higher: 5.03 µM for the first, 1.09 µM for the second. The second is the more potent here.

`CCOC(=O)Cc1nnc2c(Nc3ccccc3F)nc3nonc3n12` and `O=C(Nc1nnc(-c2cccs2)o1)c1cc(-c2ccccc2)nc2ccccc12` are within 1.5-fold of each other in IC50: 4.03 µM for the first, 3.45 µM for the second.

`CC(C)N1CCc2c(sc(NC(=O)c3ccc([N+](=O)[O-])o3)c2C(N)=O)C1` and `CCC(=O)NC(c1cccs1)c1cc([N+](=O)[O-])c2cccnc2c1O` (stereo unspecified) are within 1.5-fold of each other in IC50: 3.05 µM for the first, 3.89 µM for the second.

Compared with `CCC1(O)C(=O)OCc2c1cc1n(c2=O)Cc2cc3c(N)cccc3nc2-1` (stereo unspecified), `Cc1cc(C(=O)CSc2nc3ccccc3[nH]2)c(C)n1CC1CCCO1` (stereo unspecified) is 3.1-fold higher in IC50: 2.33 µM for the first, 7.32 µM for the second. The first is the more potent here.

First: COC(CNC(=O)CSCc1nc(-c2ccc(SC)cc2)oc1C)OC
Second: CCOC(=O)[C@]12Cc3cc(C)ccc3[C@H]1N(C1CCCCC1)C(=O)c1cc(OC)ccc12
The IC50 of the first is 1.7-fold lower: 2.61 µM for the first, 4.32 µM for the second. The first is the more potent here.

Compared with `CC(=O)c1c(O)cc(O)c(C(C)=O)c1O`, `COc1cc2c(oc(=O)c3cc(C)cc(OC)c32)c2c(C3OC(C)C(O)C(C)(O)C3O)ccc(O)c12` (stereo unspecified) is 1.7-fold higher in IC50: 4.56 µM for the first, 7.6 µM for the second. The first is the more potent here.

Compared with `Cc1ccc([C@@H]2CC=C(C(=O)O)[C@H](c3ccc(C(C)(C)C)cc3)N2S(=O)(=O)c2ccc(C)cc2)cc1`, `OC[C@@H]1CN(Cc2ccc(-c3ccccc3)cc2)C[C@H](n2cnc3c(NCc4ccncc4)ncnc32)O1` is 1.7-fold lower in IC50: 7.47 µM for the first, 4.44 µM for the second. The second is the more potent here.

`OC[C@@H]1CN(Cc2ccc(-c3ccccc3)cc2)C[C@H](n2cnc3c(Nc4ccccc4)ncnc32)O1` and `O=C1C=CC2(O[C@H](c3ccccc3)[C@@H](c3ccccc3)O2)[C@H](Sc2ccccc2O)C1` are within 1.5-fold of each other in IC50: 5 µM for the first, 4.89 µM for the second.

`CCCc1cc(=O)n2nc(N3CCC(C(=O)N4CCN(c5ccc(OC)cc5)CC4)CC3)sc2n1` and `FC(F)Sc1ccc(NC(=S)N2CCN(c3ccccn3)CC2)cc1` are within 1.5-fold of each other in IC50: 4.44 µM for the first, 4.15 µM for the second.

Going from `COc1cc(OC)nc(-n2ncc(Br)c(Br)c2=O)n1` to `Cc1cc2sc3ccc(C#CC4(O)CCCCC4)cc3c(=O)c2cc1C`, the IC50 falls from 4.91 µM to 0.00878 µM (560-fold).

— PubChem BioAssay AID624395 (The Scripps Research Institute Molecular Screening Center, 2012)
